From doi:10.1101/2025.02.07.637162, “Lactate dehydrogenase is the Achilles’ heel of Lyme disease bacterium Borreliella burgdorferi” (bioRxiv, 2025)

How the values were obtained:
[1] = target: T1, BbLDH (BB_0087, lactate dehydrogenase) (Borreliella burgdorferi, UniProt O51114); experiment: X-ray crystal structure, […] Å; assay type: binding
T1 construct: gene ldh; full-length, 316 residues

[2] = target: T1, BbLDH (BB_0087, lactate dehydrogenase); experiment: X-ray crystal structure, […] Å; allosteric activation of enzyme activity; assay type: binding

T1 sequence (O51114 whole entry): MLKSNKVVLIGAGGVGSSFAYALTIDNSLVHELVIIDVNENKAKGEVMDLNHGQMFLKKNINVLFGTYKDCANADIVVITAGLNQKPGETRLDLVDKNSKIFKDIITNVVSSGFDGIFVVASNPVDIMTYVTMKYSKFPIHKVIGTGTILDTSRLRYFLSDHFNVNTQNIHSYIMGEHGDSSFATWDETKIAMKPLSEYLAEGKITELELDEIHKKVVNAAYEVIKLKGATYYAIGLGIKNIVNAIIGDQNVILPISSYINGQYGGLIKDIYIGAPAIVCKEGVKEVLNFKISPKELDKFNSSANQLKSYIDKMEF

Structure (SMILES) | X-ray crystal structure, 2.1 Å [1] | X-ray crystal structure, 2.1 Å; allosteric activation of enzyme activity [2]
NC(=O)C1=CN([C@@H]2O[C@H](COP(=O)(O)OP(=O)(O)OC[C@H]3O[C@@H](n4cnc5c(N)ncnc54)[C@H](O)[C@@H]3O)[C@@H](O)[C@H]2O)C=CC1 [NADH] | Both structures were determined in the presence of NADH and the pyruvate analog oxamate (OXA) | 
O=P(O)(O)OC[C@H]1OC(O)(COP(=O)(O)O)[C@@H](O)[C@@H]1O (some centres unmarked) [FBP, fructose 1,6-bisphosphate] |  | Salt bridge and hydrogen bonding residues that interact with FBP in BbLDH (chain A and C, pink and yellow)
